Reference: US20240140944A1, “NOVEL NAPHTHYRIDINONE DERIVATIVE HAVING INHIBITORY ACTIVITY AGAINST ECTONUCLEOTIDE PYROPHOSPHATASE-PHOSPHODIESTERASE AND USE THEREOF” (TXINNO BIOSCIENCE INC., priority 2020, published 2024)
Structures can show the parent of a compound that is named as a salt.

biological target: T1, human recombinant ENPP1 enzymes (Homo sapiens, UniProt P22413); test: ENPP1 Enzyme Assay with cGAMP Substrate (AMP-Glo); format: biochemical; conditions: human recombinant ENPP1 3 ng/reaction, cGAMP 5 μM, 37° C. 90 minutes, average of two or more tests; read-out: Enzymatic activity IC50
T1 construct: purchased R & D systems
T1 sequence (P22413 1-925): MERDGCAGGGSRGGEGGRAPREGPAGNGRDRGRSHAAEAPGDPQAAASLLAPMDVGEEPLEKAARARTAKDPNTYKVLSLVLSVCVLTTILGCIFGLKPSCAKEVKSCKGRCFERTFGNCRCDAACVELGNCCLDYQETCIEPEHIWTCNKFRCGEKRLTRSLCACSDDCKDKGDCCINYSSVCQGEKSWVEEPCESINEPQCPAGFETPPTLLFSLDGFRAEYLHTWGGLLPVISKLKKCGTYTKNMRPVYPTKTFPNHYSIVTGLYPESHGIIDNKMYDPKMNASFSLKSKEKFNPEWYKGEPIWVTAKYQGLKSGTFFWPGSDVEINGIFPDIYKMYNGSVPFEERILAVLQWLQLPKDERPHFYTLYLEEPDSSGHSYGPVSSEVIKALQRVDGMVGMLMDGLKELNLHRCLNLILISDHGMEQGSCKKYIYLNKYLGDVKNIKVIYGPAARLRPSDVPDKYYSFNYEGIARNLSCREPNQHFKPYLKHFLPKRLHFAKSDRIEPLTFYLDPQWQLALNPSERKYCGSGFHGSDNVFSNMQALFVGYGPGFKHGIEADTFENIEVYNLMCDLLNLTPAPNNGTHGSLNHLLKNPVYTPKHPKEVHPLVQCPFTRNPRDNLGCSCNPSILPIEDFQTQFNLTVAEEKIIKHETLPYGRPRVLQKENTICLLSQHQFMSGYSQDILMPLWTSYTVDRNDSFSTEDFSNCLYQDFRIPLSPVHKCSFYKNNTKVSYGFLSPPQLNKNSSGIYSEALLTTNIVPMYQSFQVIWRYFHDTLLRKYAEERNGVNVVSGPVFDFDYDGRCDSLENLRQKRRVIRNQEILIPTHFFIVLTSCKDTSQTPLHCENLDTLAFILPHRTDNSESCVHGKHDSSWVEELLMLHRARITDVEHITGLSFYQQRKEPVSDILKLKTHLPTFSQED
Method: ENPP1 hydrolyzes nucleotides or nucleotide derivatives to produce nucleoside-5′-monophosphate and pyrophosphate. In addition, ENPP1 hydrolyzes 2′,3′-cGAMP to produce 5′-adenosine monophosphate (AMP) and 5′-guanosine monophosphate (GMP). AMP produced from the reaction is measured using the AMP-Glo® kit (Promega). The AMP-Glo® kit contains two reagents. The first reagent terminates the AMP-producing enzymatic reaction, removes ATP and converts the produced AMP into ADP. The second reagent converts ADP to ATP which is used to generate luminescence in the luciferase reaction. The amount of luminescence measured is proportional to the amount of AMP produced by ENPP1.
The final reaction mixture contains 50 mM Tris (pH 8.5) buffer, 250 mM NaCl, 0.5 mM CaCl2), 1 μM ZnCl2, 5% glycerol and 1% DMSO. Serially diluted ENPP1 inhibitors (typically in the range of 10 μM to 0.5 nM) were pre-stored with human recombinant ENPP1 enzymes (R & D systems) at 3 ng/reaction and room temperature (RT) for 5 to 10 minutes. The reaction was initiated by addition of cGAMP (at a final concentration of 5 μM) and reacted at 37° C. for 90 minutes. At the end of the reaction, 10 μl of the AMP-Glo first reagent was added to stop the reaction and the result was stored at room temperature for 1 hour. After storage, 20 μl of an AMP detection solution (a mixture of AMP-Glo II reagent and Kinase-Glo at a ratio of 1:100) was added and stored at room temperature for 1 hour. Luminescence signals were measured using a Victor® plate reader (Perkin Elmer). The maximal activity control (containing enzymes and substrates in the presence of 1% DMSO; MAX) and the minimal activity control (containing substrates and 1% DMSO; MIN) were evaluated simultaneously. In each experiment, serially diluted reference ENPP1 inhibitors were tested as well. IC50, indicating % residual activity versus compound concentration was determined by fitting inhibition curves using the 3-parameter analysis of GraphPad Prism® software. Serially diluted samples of one compound were tested two or more times and an average IC50 of each compound was calculated.

Row | Structure (SMILES) | IC50 [nM]
1 | CC(C)(C)OC(=O)Nc1cccc(-c2ccnc3[nH]c(=O)ccc23)c1 [Example 1, tert-butyl(3-(7-oxo-7,8-dihydro-1,8-naphthyridin-4-yl)phenyl)carbamate] | 1000 to 10000
2 | CC(C)(C)OC(=O)NCc1cccc(-c2ccnc3[nH]c(=O)ccc23)c1 [Example 2, tert-butyl(3-(7-oxo-7,8-dihydro-1,8-naphthyridin-4-yl)benzyl)carbamate] | 1000 to 10000
3 | NCc1cccc(-c2ccnc3[nH]c(=O)ccc23)c1 [Example 7, 5-(3-(aminomethyl)phenyl)-1,8-naphthyridin-2(1H)-one hydrochloride] | < 1000
4 | CC(C)(N)c1ccc(-c2ccnc3[nH]c(=O)ccc23)cc1 [Example 16, 5-(4-(2-aminopropan-2-yl)phenyl)-1,8-naphthyridin-2(1H)-one hydrochloride] | 1000 to 10000
5 | CN[C@@H](C)c1ccc(-c2ccnc3[nH]c(=O)ccc23)cc1 [Example 18, (S)-5-(4-(1-(methylaminoethyl)phenyl)-1,8-naphthyridin-2(1H)-one hydrochloride] | < 1000
6 | O=c1ccc2c(-c3ccc4c(c3)CNC4)ccnc2[nH]1 [Example 26, 5-(isoindolin-5-yl)-1,8-naphthyridin-2(1H)-one hydrochloride] | < 1000
7 | O=c1ccc2c(-c3ccc4c(c3)CNCC4)ccnc2[nH]1 [Example 27, 5-(1,2,3,4-tetrahydroisoquinolin-7-yl)-1,8-naphthyridin-2(1H)-one hydrochloride] | 1000 to 10000
8 | CC(C)(C)OC(=O)NS(=O)(=O)NCc1ccc(-c2ccnc3[nH]c(=O)ccc23)cc1 [Example 32, tert-butyl(N-(4-(7-oxo-7,8-dihydro-1,8-naphthyridin-4-yl)benzyl)sulfamoyl)carbamate] | < 1000
9 | NS(=O)(=O)NCc1ccc(-c2ccnc3[nH]c(=O)ccc23)cc1 [Example 40, N-(4-(7-oxo-7,8-dihydro-1,8-naphthyridin-4-yl)benzyl)sulfamide] | < 1000
10 | C[C@@H](NS(N)(=O)=O)c1ccc(-c2ccnc3[nH]c(=O)ccc23)cc1 [Example 46, (R)-(N-(1-(4-(7-oxo-7,8-dihydro-1,8-naphthyridin-4-yl)phenyl)ethyl)sulfamide hydrochloride] | < 1000
11 | C[C@H](NS(N)(=O)=O)c1ccc(-c2ccnc3[nH]c(=O)ccc23)cc1 [Example 47, (S)-(N-(1-(4-(7-oxo-7,8-dihydro-1,8-naphthyridin-4-yl)phenyl)ethyl)sulfamide hydrochloride] | < 1000
12 | CC(C)N(Cc1ccc(-c2ccnc3[nH]c(=O)ccc23)c(F)c1)S(N)(=O)=O [Example 57, N-(3-fluoro-4-(7-oxo-7,8-dihydro-1,8-naphthyridin-4-yl)benzyl)-N-isopropyl)sulfamide hydrochloride] | > 10000
13 | C[C@H](c1ccc(-c2ccnc3[nH]c(=O)ccc23)cc1)N(C)S(N)(=O)=O [Example 59, (R)-(N-methyl-N-(1-(4-(7-oxo-7,8-dihydro-1,8-naphthyridin-4-yl)phenyl)ethyl)sulfamide hydrochloride] | < 1000
14 | Cn1c(=O)ccc2c(-c3ccc(CNS(N)(=O)=O)cc3)ccnc21 [Example 67, N-(4-(8-methyl-7-oxo-7,8-dihydro-1,8-naphthyridin-4-yl)benzyl)sulfamide] | < 1000
15 | O=c1ccc2c(-c3ccc(CNS(=O)(=O)c4cccs4)cc3)ccnc2[nH]1 [Example 70, N-(4-(7-oxo-7,8-dihydro-1,8-naphthyridin-4-yl)benzyl)thiophene-2-sulfonamide] | < 1000
16 | O=c1ccc2c(-c3ccc(CNS(=O)(=O)C4CC4)cc3)ccnc2[nH]1 [Example 71, N-(4-(7-oxo-7,8-dihydro-1,8-naphthyridin-4-yl)benzyl)cyclopropanesulfonamide] | 1000 to 10000
17 | CCOP(=O)(O)Cc1ccc(-c2ccnc3[nH]c(=O)ccc23)cc1 [Example 74, ethylhydrogen(4-(7-oxo-7,8-dihydro-1,8-naphthyridin-4-yl)benzyl)phosphonate] | 1000 to 10000

Results, then the molecule that gave them:

Row | IC50 [nM] | Structure (SMILES)
18 | 1000 to 10000 | CC(C)(C)OC(=O)NCc1ccc(-c2ccnc3[nH]c(=O)ccc23)cc1 [Example 3, tert-butyl(4-(7-oxo-7,8-dihydro-1,8-naphthyridin-4-yl)benzyl)carbamate]
19 | > 10000 | Cl.Nc1ccc(F)c(-c2ccnc3[nH]c(=O)ccc23)c1 [Example 8, 5-(5-(amino-2-fluorophenyl)-1,8-naphthyridin-2(1H)-one hydrochloride]
20 | 1000 to 10000 | CN[C@H](C)c1ccc(-c2ccnc3[nH]c(=O)ccc23)cc1 [Example 17, (R)-5-(4-(1-(methylaminoethyl)phenyl)-1,8-naphthyridin-2(1H)-one hydrochloride]
21 | 1000 to 10000 | Cn1c(=O)ccc2c(-c3ccc(CN)cc3)ccnc21 [Example 29, 5-(4-(aminomethyl)phenyl)-1-methyl-1,8-naphthyridin-2(1H)-one hydrochloride]
22 | 1000 to 10000 | NS(=O)(=O)Nc1ccc(-c2ccnc3[nH]c(=O)ccc23)cc1 [Example 39, N-(4-(7-oxo-7,8-dihydro-1,8-naphthyridin-4-yl)phenyl)sulfamide]
23 | < 1000 | NS(=O)(=O)NCc1cc(F)c(-c2ccnc3[nH]c(=O)ccc23)c(F)c1 [Example 44, N-(3,5-difluoro-4-(7-oxo-7,8-dihydro-1,8-naphthyridin-4-yl)benzyl)sulfamide hydrochloride]
24 | < 1000 | C[C@@H](NS(N)(=O)=O)c1ccc(-c2ccnc3[nH]c(=O)ccc23)cc1F [Example 48, (R)-(N-(1-(2-fluoro-4-(7-oxo-7,8-dihydro-1,8-naphthyridin-4-yl)phenyl)ethyl)sulfamide hydrochloride]
25 | < 1000 | CN(Cc1ccc(-c2ccnc3[nH]c(=O)ccc23)cc1)S(N)(=O)=O [Example 50, N-methyl-N-(4-(7-oxo-7,8-dihydro-1,8-naphthyridin-4-yl)benzyl)sulfamide hydrochloride]
26 | < 1000 | CCN(Cc1ccc(-c2ccnc3[nH]c(=O)ccc23)cc1)S(N)(=O)=O [Example 51, N-ethyl-N-(4-(7-oxo-7,8-dihydro-1,8-naphthyridin-4-yl)benzyl)sulfamide hydrochloride]
27 | 1000 to 10000 | C[C@H](c1ccc(-c2ccnc3[nH]c(=O)ccc23)cc1)N(C1CC1)S(N)(=O)=O [Example 60, (R)-(N-cyclopropyl-N-(1-(4-(7-oxo-7,8-dihydro-1,8-naphthyridin-4-yl)phenyl)ethyl)sulfamide hydrochloride]
28 | < 1000 | NS(=O)(=O)N1CCc2cc(F)c(-c3ccnc4[nH]c(=O)ccc34)cc2C1 [Example 66, 6-fluoro-7-(7-oxo-7,8-dihydro-1,8-naphthyridin-4-yl)-3,4-dihydroisoquinoline-2(1H)-sulfamide hydrochloride]
29 | < 1000 | O=c1ccc2c(-c3ccc(CP(=O)(O)O)cc3)ccnc2[nH]1 [Example 75, (4-(7-oxo-7,8-dihydro-1,8-naphthyridin-4-yl)benzyl)phosphonic acid]
30 | < 1000 | NCc1cccc(Nc2ccnc3[nH]c(=O)ccc23)c1 [Example 77, 5-((3-aminomethyl)phenyl)amino)-1,8-naphthyridin-2(1H)-one dihydrochloride]
31 | < 1000 | NCc1cc(Nc2ccnc3[nH]c(=O)ccc23)ccc1F [Example 78, 5-((3-aminomethyl)-4-fluorophenyl)amino)-1,8-naphthyridin-2(1H)-one dihydrochloride]
